In brackets after ≈: the same amount, converted by molar mass. Activity calls are given as the source filed them. The rule behind the calls is not given here.
Tests used:
Diaphorina citri [1] = test: Insecticidal activity against first-instar nymphs of Diaphorina citri nymph in flush of citrus plants assessed as mortality measured on second-instar stage after 48 hr; assay type: functional
Diaphorina citri [2] = test: Inhibition of reproduction in fifth-instar nymphs of Diaphorina citri in flush of citrus plants assessed as fecundity of egg at 32 to 64 ug/ml measured 0 to 3 days after emergence relative to control; assay type: functional; set-up: scale not given: the % may be the effect or the level left
Diaphorina citri [3] = test: Ovicidal activity against Diaphorina citri in 2 to 3 months old citrus plant assessed as inhibition of old egg hatch at 64 ug/mL by residual contact bioassay; assay type: functional
Diaphorina citri [4] = test: Inhibition of reproduction in fifth-instar nymphs of Diaphorina citri in flush of citrus plants assessed as fecundity of egg at 32 to 64 ug/ml measured 4 to 6 days after emergence relative to control; assay type: functional; set-up: scale not given: the % may be the effect or the level left
Diaphorina citri [5] = test: Inhibition of reproduction in fifth-instar nymphs of Diaphorina citri in flush of citrus plants assessed as viability of egg at 64 ug/ml measured 10 to 12 days after emergence relative to control; assay type: functional, organism-based
Diaphorina citri [6] = test: Inhibition of reproduction in fifth-instar nymphs of Diaphorina citri in flush of citrus plants assessed as viability of egg at 100 ug/ml applied topically; assay type: functional, organism-based
Diaphorina citri [7] = test: Ovicidal activity against Diaphorina citri in 2 to 3 months old citrus plant assessed as inhibition of egg hatch measured 0 to 48 hr prior egg laying by residual contact bioassay; assay type: functional
Diaphorina citri [8] = test: Induction of morphological abnormalities of fourth and fifth-instar nymphs of Diaphorina citri in flush of citrus plants at 32 to 64 ug/ml after 48 hr; assay type: functional, organism-based
Diaphorina citri [9] = test: Inhibition of reproduction in fifth-instar nymphs of Diaphorina citri in flush of citrus plants assessed as fecundity of egg at 100 ug/ml measured 0 to 3 days after emergence; assay type: functional, organism-based
Diaphorina citri [10] = test: Insecticidal activity against Diaphorina citri assessed as mortality at 100 ug/ml applied topically; assay type: functional, organism-based
Diaphorina citri [11] = test: Insecticidal activity against fifth-instar nymphs of Diaphorina citri nymph in flush of citrus plants assessed as mortality measured on fifth-instar stage after 48 hr; assay type: functional
Diaphorina citri [12] = test: Inhibition of reproduction in fifth-instar nymphs of Diaphorina citri in flush of citrus plants assessed as viability of egg at 100 ug/ml measured 4 to 6 days after emergence; assay type: functional, organism-based
Diaphorina citri [13] = test: Ovicidal activity against Diaphorina citri in 2 to 3 months old citrus plant assessed as inhibition of old egg hatch at 128 ug/mL by leaf dip bioassay; assay type: functional; conditions: foliar
Diaphorina citri [14] = test: Insecticidal activity against fourth-instar nymphs of Diaphorina citri nymph in flush of citrus plants assessed as mortality measured on fifth-instar stage after 48 hr; assay type: functional
Diaphorina citri [15] = test: Inhibition of reproduction in fifth-instar nymphs of Diaphorina citri in flush of citrus plants assessed as fecundity of egg at 32 to 64 ug/ml measured 7 to 12 days after emergence relative to control; assay type: functional, organism-based
Diaphorina citri [16] = test: Inhibition of reproduction in fifth-instar nymphs of Diaphorina citri in flush of citrus plants assessed as fecundity of egg at 100 ug/ml measured 7 to 12 days after emergence; assay type: functional, organism-based
Diaphorina citri [17] = test: Ovicidal activity against Diaphorina citri in 2 to 3 months old citrus plant assessed as inhibition of egg hatch measured 0 to 48 hr after egg laying by leaf dip bioassay; assay type: functional
Diaphorina citri [18] = test: Inhibition of reproduction in fifth-instar nymphs of Diaphorina citri in flush of citrus plants assessed as viability of egg at 32 to 64 ug/ml measured 0 to 3 days after emergence relative to control; assay type: functional
Diaphorina citri [19] = test: Ovicidal activity against Diaphorina citri in 2 to 3 months old citrus plant assessed as inhibition of old egg hatch at 4 to 8 ug/mL by leaf dip bioassay; assay type: functional, organism-based
Diaphorina citri [20] = test: Inhibition of reproduction in fifth-instar nymphs of Diaphorina citri in flush of citrus plants assessed as viability of egg at 64 ug/ml measured 7 to 9 days after emergence relative to control; assay type: functional
Diaphorina citri [21] = test: Inhibition of reproduction in fifth-instar nymphs of Diaphorina citri in flush of citrus plants assessed as viability of egg at 100 ug/ml measured 7 to 12 days after emergence; assay type: functional, organism-based
Diaphorina citri [22] = test: Ovicidal activity against Diaphorina citri in 2 to 3 months old citrus plant assessed as inhibition of egg hatch measured 49 to 96 hr after egg laying by leaf dip bioassay; assay type: functional
Diaphorina citri [23] = test: Inhibition of reproduction in fifth-instar nymphs of Diaphorina citri in flush of citrus plants assessed as viability of egg at 64 ug/ml measured 4 to 6 days after emergence relative to control; assay type: functional
Diaphorina citri [24] = test: Insecticidal activity against second-instar nymphs of Diaphorina citri nymph in flush of citrus plants assessed as mortality measured on third-instar stage after 48 hr; assay type: functional
Diaphorina citri [25] = test: Inhibition of reproduction in fifth-instar nymphs of Diaphorina citri in flush of citrus plants assessed as fecundity of egg at 100 ug/ml measured 4 to 6 days after emergence; assay type: functional, organism-based
Diaphorina citri [26] = test: Insecticidal activity against third- instar nymphs of Diaphorina citri nymph in flush of citrus plants assessed as mortality measured on fourth-instar stage after 48 hr; assay type: functional
Diaphorina citri [27] = test: Inhibition of reproduction in fifth-instar nymphs of Diaphorina citri in flush of citrus plants assessed as fecundity of egg at 100 ug/ml applied topically; assay type: functional, organism-based
Diaphorina citri [28] = test: Inhibition of reproduction in fifth-instar nymphs of Diaphorina citri in flush of citrus plants assessed as viability of egg at 100 ug/ml measured 0 to 3 days after emergence; assay type: functional, organism-based

CC(COc1ccc(Oc2ccccc2)cc1)Oc1ccccn1 (stereo unspecified) [PYRIPROXYFEN]
LC50 (Diaphorina citri [1]): 17.6 mg/L (≈ 54.8 µM) | Activity (Diaphorina citri [2]): 58% | inhibition at 64 µg/mL (Diaphorina citri [3]): 70% | Activity (Diaphorina citri [4]): 64% | Activity (Diaphorina citri [5]): inactive | Activity (Diaphorina citri [6]): Active | LC50 (Diaphorina citri [7]): 32.4 mg/L (≈ 101 µM) | inhibition (Diaphorina citri [7]): Dose-dependent effect | Activity (Diaphorina citri [8]): Active | Activity (Diaphorina citri [9]): inactive | Activity (Diaphorina citri [10]): inactive | LC50 (Diaphorina citri [11]): 51.3 mg/L (≈ 160 µM) | Activity (Diaphorina citri [12]): Active | inhibition at 128 µg/mL (Diaphorina citri [13]): > 90% | LC50 (Diaphorina citri [14]): 44.3 mg/L (≈ 138 µM) | Activity (Diaphorina citri [15]): inactive | Activity (Diaphorina citri [16]): inactive | inhibition (Diaphorina citri [17]): Dose-dependent effect | LC50 (Diaphorina citri [17]; foliar): 18.4 mg/L (≈ 57.4 µM) | Activity (Diaphorina citri [18]): 69% | inhibition (Diaphorina citri [19]): Active | Activity (Diaphorina citri [20]): 83% | Activity (Diaphorina citri [21]): inactive | inhibition (Diaphorina citri [22]): Dose-dependent effect | LC50 (Diaphorina citri [22]; foliar): 37 mg/L (≈ 115 µM) | Activity (Diaphorina citri [23]): 59% | LC50 (Diaphorina citri [24]): 21.6 mg/L (≈ 67.1 µM) | Activity (Diaphorina citri [25]): Active | LC50 (Diaphorina citri [26]): 25.2 mg/L (≈ 78.6 µM) | Activity (Diaphorina citri [27]): Active | Activity (Diaphorina citri [28]): Active

From ChEMBL document CHEMBL3045744, “Effect of pyriproxyfen, a juvenile hormone mimic, on egg hatch, nymph development, adult emergence and reproduction of the Asian citrus psyllid, Diaphorina citri Kuwayama” (2010)
